# Assay results from patent US12534456B2, “Heterocyclyl pyridines as novel fungicides” (Bayer Aktiengesellschaft, priority 2020, dated 2026).
# Test: physchem
# Assay type: physicochemical
# Details: not given
# Description: Measurement of Log P values as provided herein was performed according to EEC directive 79/831 Annex V.A8 by HPLC (High Performance Liquid Chromatography) on reversed phase columns with the following methods: • ^[a]
# If more than one Log P value is available within the same method, all the values are given and separated by “+”.
# Lambda-max-values were determined using UV-spectra from 200 nm to 400 nm and the peak values of the chromatographic signals
row,Structure (SMILES),LogP
1,Cc1ccc(CC2CON=C(c3cc(Cl)ncc3Oc3cccc(OC(F)F)c3F)N2)c(C)c1 (racemic) [Compound I-035],4.23^[a]
2,COc1cccc(Oc2cnc(Cl)cc2C2=NOCC(Cc3ccc(Br)cc3Cl)N2)c1 (racemic) [Compound I-006],4.37^[a]
3,O=C(NC(CON1C(=O)c2ccccc2C1=O)Cc1ccc(Br)cc1Cl)c1cc(Cl)ncc1Oc1cccc(C(F)F)c1 (stereo not shown) [3-10],5.00^[a]
4,Cc1ccc(CC2CON=C(c3cc(Cl)ncc3Oc3cccc(C4CCC4)c3)N2)c(C)c1 (racemic) [Compound I-101],5.50^[a]
5,Cc1cccc(CC(CCl)NC(=O)c2cc(Cl)ncc2Br)c1Cl (stereo not shown) [17-05],3.97 ^[a]
6,FC(F)(F)Oc1cccc(Oc2cnc(Cl)cc2C2=NOCC(Cc3ccc(Cl)cc3Cl)N2)c1 (stereo not shown) [Compound I-148],4.88^[a]
7,Cc1ccc(CC2CON=C(c3c(Oc4cccc(C(F)(F)F)c4)cnc(Cl)c3C)N2)c(C)c1 (racemic) [Compound I-124],4.55^[a]
8,Cc1ccc(Cl)c(CC2CON=C(c3cc(Cl)ncc3Br)N2)c1 (stereo not shown) [7-09],3.46^[a]
9,Cc1ccc(CC2CON=C(c3cc(C(F)(F)F)ncc3Oc3cccc(C4CC4)c3F)N2)c(C)c1 (racemic) [Compound I-033],5.20^[a]
10,Cc1cccc(Oc2cnc(Cl)cc2C2=NOCC(Cc3ccc(Cl)cc3Cl)N2)c1F (stereo not shown) [Compound I-135],4.75^[a]
11,CCOc1cccc(Oc2cnc(Cl)cc2C2=NOCC(Cc3ccc(C)cc3C)N2)c1 (stereo not shown) [Compound I-142],4.59^[a]
12,COc1cc(C2=NOCC(Cc3ccc(C)cc3Cl)N2)c(Oc2cccc(Cl)c2F)cn1 (racemic) [Compound I-067],4.51^[a]
13,O=C(NC(CON1C(=O)c2ccccc2C1=O)Cc1ccc(Br)cc1Cl)c1cc(Cl)ncc1Oc1cccc(C2CC2)c1F (stereo not shown) [3-05],5.62^[a]
14,Cc1cccc(CC2CON=C(c3cc(Cl)ncc3Oc3cccc(Cl)c3F)N2)c1Cl (stereo not shown) [Compound I-151],4.62^[a]
15,CC(=O)c1cccc(Oc2cnc(Cl)cc2C2=NOCC(Cc3ccc(C)cc3C)N2)c1 (racemic) [Compound I-117],3.70^[a]
16,Cc1cccc(Oc2cnc(C)cc2C2=NOCC(Cc3ccc(C)cc3C)N2)c1 (racemic) [Compound I-008],3.61^[a]
17,Fc1c(Oc2cnc(Cl)cc2C2=NOCC(Cc3ccc(Cl)cc3Cl)N2)cccc1C1CC1 (racemic) [Compound I-024],4.98^[a]
18,ON=C(NC(CCl)Cc1csc(Cl)c1)c1cc(Cl)ncc1Oc1cccc(C(F)(F)F)c1 (stereo not shown) [16-11],4.48^[a]
19,Cc1ccc(CC(CON2C(=O)c3ccccc3C2=O)NC(=O)c2cc(Cl)ncc2Br)c(C)c1 (stereo not shown) [Compound 6-02],4.13^[a]
20,ON=C(NC(CCl)Cc1csc(C(F)(F)F)c1)c1cc(Cl)ncc1Oc1cccc(C(F)(F)F)c1 (stereo not shown) [16-10],4.59^[a]
21,COc1ccc(C2CON=C(c3cc(Cl)ncc3Oc3cccc(C(F)(F)F)c3)N2)cc1 (racemic) [Compound I-045],3.60^[a]
22,NOCC(Cc1ccc(Br)cc1Cl)NC(=O)c1cc(Cl)ncc1Oc1cccc(C(F)F)c1 (stereo not shown) [4-10],3.46^[a]
23,Cc1cccc(Oc2cnc(Cl)cc2C2=NOCC(Cc3ccc(C)cc3C)N2)c1 (racemic) [Compound I-007],4.55^[a]

row,Structure (SMILES),LogP
1,Cc1cc(Cl)ccc1CC1CON=C(c2cc(Cl)ncc2Br)N1 (stereo not shown) [7-06],3.44^[a]
2,Cc1ccc(CC2CON=C(c3cc(C)ncc3Oc3cccc(C(F)F)c3)N2)c(C)c1 (racemic) [Compound I-010],3.41^[a]
3,FC(F)(F)c1cccc(Oc2cnc(Cl)cc2C2=NOCCC(c3ccc(Cl)cc3)N2)c1 (racemic) [Compound I-108],2.12^[a]
4,CSc1cccc(Oc2cnc(Cl)cc2C2=NOCC(Cc3ccc(C)cc3C)N2)c1F (stereo not shown) [Compound I-154],4.47^[a]
5,FC(F)(F)c1cccc(Oc2cnc(Cl)cc2C2=NOCC(c3ccccc3)N2)c1 (racemic) [Compound I-070],3.64^[a]
6,O=C(O)c1cc(Cl)ncc1Oc1cccc(C2CC2)c1 [Compound 1-12],2.87^[a]
7,Cc1cc(Cl)ccc1CC(CCl)NC(=O)c1cc(Cl)ncc1Br (stereo not shown) [17-04],3.98^[a]
8,Cc1ccc(CC2CON=C(c3cc(C)ncc3Oc3cccc(C4CC4)c3)N2)c(C)c1 (racemic) [Compound I-015],3.94^[a]
9,FC(F)(F)c1cccc(Oc2cnc(Cl)cc2C2=NOCC(Cc3cc(Cl)sc3Cl)N2)c1 (stereo not shown) [Compound I-145],4.83^[a]
10,NOCC(Cc1ccc(Br)cc1Cl)NC(=O)c1cc(Cl)ncc1Oc1cccc(C2CC2)c1F (stereo not shown) [4-05],4.08^[a]
11,CC(=O)OC1ON=C(c2cc(Cl)ncc2Oc2cccc(C(F)(F)F)c2)NC1c1ccc(Cl)cc1 (mixture of isomers) [Compound I-073],4.08^[a]
12,COc1cc(C(=O)NC(CCl)Cc2ccc(C)cc2C)c(Oc2cccc(C(F)(F)F)c2)cn1 (stereo not shown) [14-05],5.26^[a]
13,Cc1ccc(CC2CON=C(c3cc(Cl)ncc3Br)N2)c(Cl)c1 (stereo not shown) [7-05],3.38^[a]
14,FC(F)(F)c1cncc(Oc2cnc(Cl)cc2C2=NOCC(Cc3ccc(Cl)cc3Cl)N2)c1 (racemic) [Compound I-125],3.71^[a]
15,Cc1ccc(CC(CCl)NC(=NO)c2cc(Cl)nc(F)c2Oc2cccc(C(F)(F)F)c2)c(C)c1 (stereo not shown) [16-06],5.16^[a]
16,COc1cccc(Oc2cnc(Cl)cc2C(=O)NC(CON)Cc2ccc(Br)cc2Cl)c1 (stereo not shown) [4-08],3.39^[a]
17,Cc1ccc(CC2CON=C(c3cc(Cl)ncc3Oc3cccc(Br)c3)N2)c(C)c1 (racemic) [Compound I-104],4.74^[a]
18,OC1CON=C(c2cc(Cl)ncc2Oc2cccc(C(F)(F)F)c2)N1 (stereo not shown) [Compound 32-01],2.11^[a]
19,Cc1ccc(CC2CON=C(c3cc(Cl)ncc3Oc3ccc4c(c3)CCO4)N2)c(C)c1 (racemic) [Compound I-111],4.23^[a]
20,COC(=O)c1cc(C#C[Si](C)(C)C)ncc1Oc1cccc(C(F)(F)F)c1 [Compound 1-03],5.35^[a]
21,Cc1cccc(CC2CON=C(c3cc(Cl)ncc3Br)N2)c1Cl (stereo not shown) [7-07],3.44^[a]
22,CC(=O)c1cc(C(=O)O)c(Oc2cccc(C(F)(F)F)c2)cn1 [Compound 1-02],2.54^[a]
23,Cc1cccc(Oc2cnc(Cl)cc2C(=O)NC(CON2C(=O)c3ccccc3C2=O)Cc2ccc(C)cc2C)c1 (stereo not shown) [3-07],5.16^[a]

row,Structure (SMILES),LogP
1,Cc1ccc(CC2CON=C(c3cc(C)ncc3Oc3cccc(C4CC4)c3F)N2)c(Cl)c1 (racemic) [Compound I-031],4.08^[a]
2,C=Cc1cc(C2=NOCC(Cc3ccc(C)cc3)N2)c(Oc2cccc(C(F)(F)F)c2)cn1 (racemic) [Compound I-059],4.19^[a]
3,COc1cccc(Oc2cnc(Cl)cc2C(=O)NC(CON)Cc2ccc(C)cc2C)c1 (stereo not shown) [4-09],3.08^[a]
4,Cc1ccc(CC2CON=C(c3cc(Cl)nc(Cl)c3Oc3cccc(C(F)(F)F)c3)N2)c(C)c1 (racemic) [Compound I-127],5.08^[a]
5,CCC1ON=C(c2cc(Cl)ncc2Oc2cccc(C(F)(F)F)c2)NC1c1ccc(OC)cc1 (mixture of isomers) [Compound I-122],4.07^[a]
6,C=Cc1cccc(Oc2cnc(Cl)cc2C2=NOCC(Cc3ccc(Cl)cc3Cl)N2)c1 (racemic) [Compound I-099],4.85^[a]
7,FC(F)(F)c1cccc(Oc2cnc(Cl)cc2C2=NOC(C3CC3)C(c3ccc(Cl)cc3)N2)c1 (mixture of isomers) [Compound I-139],4.47^[a]
8,C#Cc1ccc(CC2CON=C(c3cc(C#C)ncc3Oc3cccc(C(F)(F)F)c3)N2)c(C)c1 (racemic) [Compound I-074],3.75^[a]
9,Cc1ccc(C2CON=C(c3cc(Cl)ncc3Oc3cccc(C(F)(F)F)c3)N2)cc1 (racemic) [Compound I-048],3.96^[a]
10,Cn1cc(C2CON=C(c3cc(Cl)ncc3Oc3cccc(C(F)(F)F)c3)N2)c2ccccc21 (racemic) [Compound I-096],4.01^[a]
11,Cc1cccc(Oc2cnc(Cl)cc2C(=O)O)c1 [Compound 1-08],2.60^[a]
12,FC(F)(F)c1cccc(Oc2cnc(Cl)cc2C2=NCC(Cc3ccc(Cl)cc3)N2)c1 (racemic) [Compound I-106],2.45^[a]
13,COc1cccc(Oc2cnc(Cl)cc2C(=O)O)c1 [Compound 1-09],2.34^[a]
14,Cc1ccc(CC2CON=C(c3cc(C)ncc3Oc3cccc(C4CC4)c3)N2)c(Cl)c1 (racemic) [Compound I-030],3.98^[a]
15,FC(F)(F)c1cccc(Oc2cnc(Cl)cc2C2=NOCC(Cc3csc(C(F)(F)F)c3)N2)c1 (racemic) [Compound I-068],4.40^[a]
16,O=C(O)c1c(Oc2cccc(C(F)(F)F)c2)cnc(Cl)c1I [Compound 1-17],2.49^[a]
17,Cc1ccc(CC2CON=C(c3cc(Cl)ncc3Oc3cccc(N(C)C)c3)N2)c(C)c1 (stereo not shown) [Compound I-132],4.47^[a]
18,Cc1ccc(CC2CON=C(c3c(Oc4cccc(C(F)(F)F)c4)cnc(Cl)c3C3CC3)N2)c(C)c1 (stereo not shown) [Compound I-150],4.70^[a]
19,FC(F)(F)c1cccc(Oc2cnc(Cl)cc2C2=NOCC(c3ccc(Cl)cc3)N2)c1 (racemic) [Compound I-050],3.99^[a]
20,CCc1cc(C2=NOCC(Cc3ccc(C)cc3C)N2)c(Oc2cccc(C3CC3)c2)cn1 (racemic) [Compound I-027],4.40^[a]
21,O=C(NC(CCl)Cc1ccc(C(F)(F)F)cc1Cl)c1cc(Cl)ncc1Oc1cccc(C(F)(F)F)c1 (stereo not shown) [14-09],5.36^[a]
22,Cc1cc(Br)ccc1CC1CON=C(c2cc(Cl)ncc2Oc2cccc(C(F)(F)F)c2)N1 (stereo not shown) [Compound I-158],4.81^[a]
23,Cc1ccc(CC2CON=C(c3cc(Cl)ncc3Oc3ccc4ccccc4c3)N2)c(C)c1 (racemic) [Compound I-086],4.77^[a]

# Same assay, conditions: Table 15, compounds of formula (9); method [a]: LC-UV, acidic range, 0.1% formic acid in water and acetonitrile
row,Structure (SMILES),chromatographic logP
1,"N#Cc1cc(Cl)ncc1Oc1cccc(C(F)(F)F)c1 [Compound 9-01, 2-chloro-5-[3-(trifluoromethyl)phenoxy]isonicotinonitrile]",3.77
